Results published in PubChem BioAssay AID1259408 (Genetic Toxicology Data Bank (GENE-TOX), 2018).
Activity calls are given as the source filed them. No rule for the calls is given here.

System: GENE-TOX genotoxicity assays, various organisms and cells
Assay: GENE-TOX mutagenicity studies
Conditions: for call: Assay Type: In vivo carcinogenicity studies
[1] = Species/Cell Type: Chinese hamster lung (V79) cells, Assay Type: Forward gene mutation at the HPRT or ouabain locus, Assay Code: V79+, Evaluation Type: Evaluation A (Pre-1980)
[2] = Species/Cell Type: Nonhuman, Assay Code: CCG+L, Evaluation Type: Evaluation A (Pre-1980)
[3] = Species/Cell Type: Nonhuman, Assay Type: Sister-chromatid exchange (SCE) in vitro, Assay Code: SC2+D, Dose Response: With dose response, Evaluation Type: Evaluation B (Post-1980)
[4] = Species/Cell Type: Salmonella typhimurium (one or more of the five standard strains: TA98, TA100, TA1535, TA1537, and TA1538), Assay Type: Histidine reverse gene mutation, Ames assay, Assay Code: SAL+, Evaluation Type: Evaluation A (Pre-1980)
[5] = Species/Cell Type: Mammalian polychromatic erythrocytes, Assay Type: Micronucleus test, chromosome aberrations, Assay Code: MNTT, Evaluation Type: Evaluation B (Post-1980)
[6] = Species/Cell Type: Drosophila melanogaster, Assay Type: Sex-linked recessive lethal gene mutation, Assay Code: SRLT, Evaluation Type: Evaluation A (Pre-1980)
[7] = Species/Cell Type: Salmonella typhimurium (one or more of the five standard strains: TA98, TA100, TA1535, TA1537, and TA1538), Assay Type: Histidine reverse gene mutation, Ames assay, Assay Code: SAL+*, Activation: With metabolic activation, Evaluation Type: Evaluation A (Pre-1980)
[8] = Species/Cell Type: Nonhuman, Assay Code: CCGT, Evaluation Type: Evaluation A (Pre-1980)
[9] = Species/Cell Type: Human, Assay Type: Sister-chromatid exchange (SCE) in vitro, Assay Code: SC1+D, Dose Response: With dose response, Evaluation Type: Evaluation B (Post-1980)
[10] = Species/Cell Type: Saccharomyces cerevisiae, Assay Type: Mitotic recombination or gene conversion, Assay Code: YEH-, Evaluation Type: Evaluation A (Pre-1980)
[11] = Species/Cell Type: Chinese hamster lung (V79) cells, Assay Type: Forward gene mutation at the HPRT or ouabain locus, Assay Code: V79-*, Activation: With metabolic activation, Evaluation Type: Evaluation A (Pre-1980)
[12] = Species/Cell Type: Salmonella typhimurium (one or more of the five standard strains: TA98, TA100, TA1535, TA1537, and TA1538), Assay Type: Histidine reverse gene mutation, Ames assay, Assay Code: SALT, Evaluation Type: Evaluation A (Pre-1980)

c1ccc2c(c1)-c1cc3ccc4ccccc4c3cc1C1OC21 (centres undefined)
mutagenic call [1]: active; positive
mutagenic call (Species/Cell Type: Human diploid fibroblasts, Assay Type: Unscheduled DNA synthesis (UDS) in vitro, DNA effects, Assay Code: UDHT, Evaluation Type: Evaluation A (Pre-1980)): no conclusion
mutagenic call (Species/Cell Type: Mouse prostate cells, Assay Type: Cell transformation, Assay Code: CTM+D, Dose Response: With dose response, Evaluation Type: Evaluation A (Pre-1980)): active; positive
call [2]: active; positive
mutagenic call [3]: active; positive
mutagenic call [4]: active; positive
mutagenic call (Species/Cell Type: Syrian hamster embryo (SHE) cells, Assay Type: Cell transformation, clonal assay, Assay Code: CTC+, Evaluation Type: Evaluation A (Pre-1980)): active; positive

CCNCC
mutagenic call (Species/Cell Type: Saccharomyces cerevisiae, Assay Type: Forward gene mutation, Assay Code: YEF-*, Activation: With metabolic activation, Evaluation Type: Evaluation A (Pre-1980)): inactive; negative

O=S1OCC2C(CO1)C1(Cl)C(Cl)=C(Cl)C2(Cl)C1(Cl)Cl (centres undefined)
mutagenic call [5]: no conclusion

CC(C)C(O)(C(=O)OCC1=CC[N@+]2([O-])CCCC12)[C@H](C)O (some centres undefined)
mutagenic call [6]: no conclusion

Cc1ccc2cc3c(ccc4ccccc43)cc2c1
mutagenic call [3]: active; positive
mutagenic call [7]: active; positive

O=[As](=O)O[As](=O)=O
mutagenic call (Species/Cell Type: Bacillus subtilis (H17 vs M45), Assay Type: Rec-assay, spot test, DNA effects (bacterial DNA repair), Assay Code: REW+, Evaluation Type: Evaluation A (Pre-1980)): active; positive
mutagenic call (Species/Cell Type: Nonhuman, Assay Type: Sister-chromatid exchange (SCE) in vitro, Assay Code: SC2+, Evaluation Type: Evaluation B (Post-1980)): active; positive

CCN(CCO)CCNc1ccc(CO)c2sc3cc(Cl)ccc3c(=O)c12
mutagenic call (Species/Cell Type: Mouse lymphoma (L5178Y) cells, Assay Type: Forward gene mutation at the thymidine kinase (TK) locus, chromosome aberrations, Assay Code: L51+, Evaluation Type: Evaluation A (Pre-1980)): active; positive

C=C=O
mutagenic call [4]: active; positive
mutagenic call (Species/Cell Type: Tradescantia species, Assay Type: Chromosome aberrations, Assay Code: TRC+, Evaluation Type: Evaluation A (Pre-1980)): active; positive

Oc1ccc2ccc3cc4ccccc4c4ccc1c2c34
mutagenic call (Species/Cell Type: Chinese hamster lung (V79) cells, Assay Type: Forward gene mutation at the HPRT or ouabain locus, Assay Code: V79+/-*, Activation: With metabolic activation, Evaluation Type: Evaluation A (Pre-1980)): inactive; positive without activation, negative with activation
call [8]: no conclusion
mutagenic call [4]: active; positive

[O-][Cl+]O
mutagenic call [5]: no conclusion

C=Cc1cn([C@H]2C[C@H](O)[C@@H](CO)O2)c(=O)[nH]c1=O
mutagenic call (Species/Cell Type: Human lymphocytes, Assay Type: Sister-chromatid exchange (SCE) in vitro, Assay Code: SCL+, Evaluation Type: Evaluation B (Post-1980)): active; positive
mutagenic call [9]: active; positive

NC(Cc1cccc(F)c1)C(=O)O (centres undefined)
mutagenic call (Species/Cell Type: Neurospora crassa, Assay Type: Aneuploidy, chromosome aberrations, Assay Code: NEN-, Evaluation Type: Evaluation A (Pre-1980)): inactive; negative

CC(C)=CC1C(C(=O)O)C1(C)C (centres undefined)
mutagenic call (Species/Cell Type: Human diploid fibroblasts, Assay Type: Unscheduled DNA synthesis (UDS) in vitro, DNA effects, Assay Code: UDH-, Evaluation Type: Evaluation A (Pre-1980)): inactive; negative
mutagenic call [10]: inactive; negative

C#CC(C)N(C)C(=O)Nc1ccc(Cl)cc1 (centres undefined)
mutagenic call (Species/Cell Type: Saccharomyces cerevisiae, Assay Type: Mitotic recombination or gene conversion, Assay Code: YEC-, Evaluation Type: Evaluation A (Pre-1980)): inactive; negative

ClC1=C(Cl)[C@]2(Cl)[C@H]3[C@H]([C@@H]4C=C[C@H]3C4)[C@@]1(Cl)C2(Cl)Cl
mutagenic call [6]: no conclusion
mutagenic call [5]: no conclusion
call [2]: active; positive
mutagenic call [10]: inactive; negative
mutagenic call (Species/Cell Type: Salmonella typhimurium (one or more of the five standard strains: TA98, TA100, TA1535, TA1537, and TA1538), Assay Type: Histidine reverse gene mutation, Ames assay, Assay Code: SAL-, Evaluation Type: Evaluation A (Pre-1980)): inactive; negative

O=S(=O)(O)c1ccc(N=Nc2c(O)ccc3ccccc23)c2ccccc12
mutagenic call (Species/Cell Type: Bacillus subtilis (H17 vs M45), Assay Type: Rec-assay, spot test, DNA effects (bacterial DNA repair), Assay Code: REWT, Evaluation Type: Evaluation A (Pre-1980)): no conclusion

Cc1ccc2ccc3c(C)c4ccccc4c(C)c3c2c1
mutagenic call [11]: inactive; negative

Cc1cc(C)cc(C2CO2)c1 (centres undefined)
mutagenic call (Species/Cell Type: Human lymphocytes, Assay Type: Sister-chromatid exchange (SCE) in vitro, Assay Code: SCL+D, Dose Response: With dose response, Evaluation Type: Evaluation B (Post-1980)): active; positive
mutagenic call [9]: active; positive

CCOP(=S)(NC(C)CC)Oc1cc(C)ccc1[N+](=O)[O-] (centres undefined)
mutagenic call (Species/Cell Type: Salmonella typhimurium, Assay Type: Forward and reverse gene mutation, host-mediated assay, Assay Code: HMA-, Evaluation Type: Evaluation A (Pre-1980)): inactive; negative

O[C@@H]1c2cccc3ccc4cc5ccccc5c(c4c23)[C@H]1O
mutagenic call [1]: active; positive
mutagenic call [12]: no conclusion

c1ccc2[nH]c(-c3cscn3)nc2c1
mutagenic call (Species/Cell Type: Aspergillus nidulans, Assay Type: Aneuploidy, chromosome aberrations, Assay Code: ASN+, Evaluation Type: Evaluation A (Pre-1980)): active; positive
mutagenic call (Species/Cell Type: Aspergillus nidulans, Assay Type: Mitotic recombination, Assay Code: ASGT, Evaluation Type: Evaluation A (Pre-1980)): no conclusion
mutagenic call (Species/Cell Type: Mammalian polychromatic erythrocytes, Assay Type: Micronucleus test, chromosome aberrations, Assay Code: MNT+, Evaluation Type: Evaluation B (Post-1980)): active; positive

O=C(O)COc1cc(Cl)c(Cl)cc1Cl
mutagenic call (Species/Cell Type: Drosophila melanogaster, Assay Type: Aneuploidy, sex chromosome gain, chromosome aberrations, Assay Code: DAG-M-F, Evaluation Type: Evaluation A (Pre-1980)): inactive; negative
mutagenic call (Species/Cell Type: Drosophila melanogaster, Assay Type: Aneuploidy, whole sex chromosome loss, chromosome aberrations, Assay Code: DAC-M-F, Evaluation Type: Evaluation A (Pre-1980)): inactive; negative
mutagenic call (Species/Cell Type: Drosophila melanogaster, Assay Type: Sex-linked recessive lethal gene mutation, Assay Code: SRL+, Evaluation Type: Evaluation A (Pre-1980)): active; positive
mutagenic call [6]: no conclusion
mutagenic call (Species/Cell Type: Mammalian polychromatic erythrocytes, Assay Type: Micronucleus test, chromosome aberrations, Assay Code: MNTT, Evaluation Type: Evaluation A (Pre-1980)): no conclusion
mutagenic call (Species/Cell Type: Nonhuman bone marrow, Assay Type: Chromosome aberrations, in vivo, Assay Code: CY#+D, Dose Response: With dose response, Evaluation Type: Evaluation A (Pre-1980)): active; positive
mutagenic call (Species/Cell Type: Saccharomyces cerevisiae, Assay Type: Reverse gene mutation, Assay Code: YER+, Evaluation Type: Evaluation A (Pre-1980)): active; positive
mutagenic call (Species/Cell Type: Salmonella typhimurium, Serratia marcesens, Assay Type: Forward and reverse gene mutation, host-mediated assay, Assay Code: HM2T, Evaluation Type: Evaluation A (Pre-1980)): no conclusion
mutagenic call (Species/Cell Type: Vicia faba, Assay Type: Chromosome aberrations, Assay Code: VIC+, Evaluation Type: Evaluation A (Pre-1980)): active; positive

C=CC1C(C)OC(=O)C1C(C)=O (centres undefined)
mutagenic call (Species/Cell Type: Allium cepa, Assay Type: Chromosome aberrations, Assay Code: ALC+, Evaluation Type: Evaluation A (Pre-1980)): active; positive

Cc1c2ccccc2c(C)c2c1ccc1cccc(F)c12
mutagenic call [11]: inactive; negative

Oc1ccc2ccccc2c1N=Nc1cc[c]([Hg+])cc1
mutagenic call [12]: no conclusion

CC(C)(C)N1CC1
mutagenic call (Species/Cell Type: Schizosaccharomyces pombe, Assay Type: Reverse gene mutation, Assay Code: YEZ+, Evaluation Type: Evaluation A (Pre-1980)): active; positive

O=c1c2ccc3cccc4c(=O)cc(c5ccccc15)-c2c34
mutagenic call (Species/Cell Type: Chinese hamster lung (V79) cells, Assay Type: Forward gene mutation at the HPRT or ouabain locus, Assay Code: V79-, Evaluation Type: Evaluation A (Pre-1980)): inactive; negative
call [8]: no conclusion
mutagenic call [12]: no conclusion

COc1cc2c(c3oc(=O)c4c(c13)[C@@H](O)CC4=O)[C@@H]1C=CO[C@@H]1O2
mutagenic call [7]: active; positive
